From patent publication US9999619B2, “Piperidin-4-yl azetidine derivatives as JAK1 inhibitors” (Incyte Corporation, priority 2010, dated 2018) come the findings set out here.

What all share (type): biochemical
Experiment [1] has as its target human JAK1 (a.a. 837-1142). The experiment is described as follows: In vitro JAK kinase assay (HTRF, phosphorylation of a biotinylated peptide), JAK1. To be noted: ratio of JAK2 IC50 to JAK1 IC50, measured at 1 mM ATP. Summed up:
(§1)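 N-terminal His-tagged catalytic domains, baculovirus-expressed in insect cells, phosphorylated a biotinylated peptide for 1 hr at room temperature. EDTA stop was followed by SA-APC and Eu-Py20 antibody for 40 minutes, with phosphopeptide read by HTRF.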
Background: Time-resolved FRET reads energy transfer from a long-lived donor to a nearby acceptor.

The target of experiment [2] is human JAK1 (a.a. 837-1142) (Homo sapiens, UniProt P23458). The experiment is described as above. To be noted: measured at 1 mM ATP. In outline: as §1
The target in another experiment is Jak2 (a.a. 828-1132) (Homo sapiens (Human), UniProt O60674). Briefly: In vitro JAK kinase assay (HTRF, phosphorylation of a biotinylated peptide), JAK2. The following applies: measured at 1 mM ATP. Summed up: as §1

By IC50 is commonly meant the concentration needed to halve the response being measured.

Chain of Jak2 (a.a. 828-1132) (O60674 828-1132): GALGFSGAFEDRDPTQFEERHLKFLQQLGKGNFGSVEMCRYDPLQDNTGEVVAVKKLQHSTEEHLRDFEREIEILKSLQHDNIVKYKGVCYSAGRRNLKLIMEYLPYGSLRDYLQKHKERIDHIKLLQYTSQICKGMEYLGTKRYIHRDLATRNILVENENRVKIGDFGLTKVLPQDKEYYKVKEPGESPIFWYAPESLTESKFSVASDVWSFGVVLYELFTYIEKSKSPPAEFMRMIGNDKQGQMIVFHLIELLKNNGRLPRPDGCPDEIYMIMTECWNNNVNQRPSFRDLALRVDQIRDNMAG

Turning to `N#CCC1(n2cc(-c3c(F)cnc4[nH]ccc34)cn2)CN(C2CCN(C(=O)c3ccc(O)cc3F)CC2)C1` [Example 323, {1-[1-(2-fluoro-4-hydroxybenzoyl)piperidin-4-yl]-3-[4-(5-fluoro-1H-pyrrolo[2,3-b]pyridin-4-yl)-1H-pyrazol-1-yl]azetidin-3-yl}acetonitrile], in experiment [1], the “IC50 Ratio JAK2/JAK1” value worked out at 5.0. In addition, the values for the IC50 (in experiment [2]; on Jak2 (a.a. 828-1132)) were ≤ 5 nM and ≤ 10 nM, respectively.
For `N#CCC1(n2cc(-c3c(F)cnc4[nH]ccc34)cn2)CN(C2CCN(C(=O)c3cc(C(F)(F)F)ncc3Cl)CC2)C1` [Example 326, {1-{1-[5-chloro-2-(trifluoromethyl)isonicotinoyl]piperidin-4-yl}-3-[4-(5-fluoro-1H-pyrrolo[2,3-b]pyridin-4-yl)-1H-pyrazol-1-yl]azetidin-3-yl}acetonitrile], in that order: 1.7, 5 to 20 nM and 10 to 50 nM.
Consider `N#CCC1(n2cc(-c3c(F)cnc4[nH]ccc34)cn2)CN(C2CCN(C(=O)C3CCC(F)(F)CC3)CC2)C1` [Example 327, {1-{1-[(4,4-difluorocyclohexyl)carbonyl]piperidin-4-yl}-3-[4-(5-fluoro-1H-pyrrolo[2,3-b]pyridine-4-yl)-1H-pyrazol-1-yl]azetidin-3-yl}acetonitrile], for which the “IC50 Ratio JAK2/JAK1” value in experiment [1] came out at 4.1. In addition, the values for the half-inhibitory concentration (IC50) (in experiment [2]; at Jak2 (a.a. 828-1132)) were 5 to 20 nM and 50 to 100 nM, respectively.
The corresponding values for `N#CCC1(n2cc(-c3c(F)cnc4[nH]ccc34)cn2)CN(C2CCN(C(=O)Nc3ccc(F)cc3C(F)(F)F)CC2)C1` [Example 328, 4-{3-(Cyanomethyl)-3-[4-(5-fluoro-1H-pyrrolo[2,3-b]pyridin-4-yl)-1H-pyrazol-1-yl]azetidin-1-yl}-N-[4-fluoro-2-(trifluoromethyl)phenyl]piperidine-1-carboxamide] are 12.9, ≤ 5 nM and 10 to 50 nM.
For `N#CCC1(n2cc(-c3c(F)cnc4[nH]ccc34)cn2)CN(C2CCN(C(=O)Nc3ncccc3C(F)(F)F)CC2)C1` [Example 329, 4-{3-(cyanomethyl)-3-[4-(5-fluoro-1H-pyrrolo[2,3-b]pyridin-4-yl)-1H-pyrazol-1-yl]azetidin-1-yl}-N-[3-(trifluoromethyl)pyridin-2-yl]piperidine-1-carboxamide], in that order: 4.5, 5 to 20 nM and 50 to 100 nM.
The corresponding values for `N#CCC1(n2cc(-c3c(F)cnc4[nH]ccc34)cn2)CN(C2CCN(C(=O)Nc3cnccc3C(F)(F)F)CC2)C1` [Example 330, 4-{3-(cyanomethyl)-3-[4-(5-fluoro-1H-pyrrolo[2,3-b]pyridin-4-yl)-1H-pyrazol-1-yl]azetidin-1-yl}-N-[4-(trifluoromethyl)pyridin-3-yl]piperidine-1-carboxamide] are 6.7, ≤ 5 nM and 10 to 50 nM.
With `N#CCC1(n2cc(-c3c(F)cnc4[nH]ccc34)cn2)CN(C2CCN(C(=O)Nc3ccncc3C(F)(F)F)CC2)C1` [Example 331, 4-{3-(cyanomethyl)-3-[4-(5-fluoro-1H-pyrrolo[2,3-b]pyridin-4-yl)-1H-pyrazol-1-yl]azetidin-1-yl}-N-[3-(trifluoromethyl)pyridin-4-yl]piperidine-1-carboxamide], the “IC50 Ratio JAK2/JAK1” value in experiment [1] is listed as 10.8. Also, the figures for the half-inhibitory concentration (IC50) (in experiment [2]; against Jak2 (a.a. 828-1132)) were ≤ 5 nM and 10 to 50 nM, respectively.
For `N#CCC1(n2cc(-c3c(C#N)cnc4[nH]ccc34)cn2)CN(C2CCN(C(=O)c3ccnc(C(F)(F)F)c3F)CC2)C1` [Example 332, 4-[1-(3-(Cyanomethyl)-1-{1-[3-fluoro-2-(trifluoromethyl)isonicotinoyl]piperidin-4-yl}azetidin-3-yl)-1H-pyrazol-4-yl]-1H-pyrrolo[2,3-b]pyridine-5-carbonitrile], in that order: 19.3, ≤ 5 nM and 50 to 100 nM.
The corresponding values for `N#CCC1(n2cc(-c3c(C#N)cnc4[nH]ccc34)cn2)CN(C2CCN(C(=O)c3cc(F)cc(C#N)c3)CC2)C1` [Example 333, 4-{1-[1-[1-(3-cyano-5-fluorobenzoyl)piperidin-4-yl]-3-(cyanomethyl)azetidin-3-yl]-1H-pyrazol-4-yl}-1H-pyrrolo[2,3-b]pyridine-5-carbonitrile] are 8.8, 5 to 20 nM and 50 to 100 nM.
Take `N#CCC1(n2cc(-c3c(C#N)cnc4[nH]ccc34)cn2)CN(C2CCN(C(=O)c3ccc(C#N)c(F)c3)CC2)C1` [Example 334, 4-{1-[1-[1-(4-cyano-3-fluorobenzoyl)piperidin-4-yl]-3-(cyanomethyl)azetidin-3-yl]-1H-pyrazol-4-yl}-1H-pyrrolo[2,3-b]pyridine-5-carbonitrile]: in experiment [1], the “IC50 Ratio JAK2/JAK1” value is reported as 4.3. Also, the IC50 is 20 to 30 nM in experiment [2] and > 100 nM against Jak2 (a.a. 828-1132).
For `N#CCC1(n2cc(-c3c(C#N)cnc4[nH]ccc34)cn2)CN(C2CCN(C(=O)c3cc(Br)ccc3Br)CC2)C1` [Example 335, 4-(1-{3-(cyanomethyl)-1-[1-(2,5-dibromobenzoyl)piperidin-4-yl]azetidin-3-yl}-1H-pyrazol-4-yl)-1H-pyrrolo[2,3-b]pyridine-5-carbonitrile], in that order: 2.4, ≤ 5 nM and ≤ 10 nM.
Consider `N#CCC1(n2cc(-c3c(C#N)cnc4[nH]ccc34)cn2)CN(C2CCN(C(=O)c3cc(Br)cc(Br)c3)CC2)C1` [Example 336, 4-(1-{3-(cyanomethyl)-1-[1-(3,5-dibromobenzoyl)piperidin-4-yl]azetidin-3-yl}-1H-pyrazol-4-yl)-1H-pyrrolo[2,3-b]pyridine-5-carbonitrile], for which the “IC50 Ratio JAK2/JAK1” value in experiment [1] is given as 2.9. Besides, the IC50 is ≤ 5 nM in experiment [2] and ≤ 10 nM against Jak2 (a.a. 828-1132).
With `N#CCC1(n2cc(-c3c(C#N)cnc4[nH]ccc34)cn2)CN(C2CCN(C(=O)c3cc(C#N)ccc3C#N)CC2)C1` [Example 337, 2-[(4-{3-(cyanomethyl)-3-[4-(5-cyano-1H-pyrrolo[2,3-b]pyridin-4-yl)-1H-pyrazol-1-yl]azetidin-1-yl}piperidin-1-yl)carbonyl]terephthalonitrile], the “IC50 Ratio JAK2/JAK1” value in experiment [1] is given as 6.0. Moreover, the IC50 was 5 to 20 nM in experiment [2] and 10 to 50 nM at Jak2 (a.a. 828-1132).
Consider `N#CCC1(n2cc(-c3c(C#N)cnc4[nH]ccc34)cn2)CN(C2CCN(C(=O)c3cc(C#N)cc(C#N)c3)CC2)C1` [Example 338, 5-[(4-{3-(cyanomethyl)-3-[4-(5-cyano-1H-pyrrolo[2,3-b]pyridin-4-yl)-1H-pyrazol-1-yl]azetidin-1-yl}piperidin-1-yl)carbonyl]isophthalonitrile], for which the “IC50 Ratio JAK2/JAK1” value in experiment [1] was determined as 7.4. Besides, the results for the IC50 (in experiment [2]; at Jak2 (a.a. 828-1132)) were 5 to 20 nM and 50 to 100 nM, respectively.
For `N#CCC1(n2cc(-c3c(C#N)cnc4[nH]ccc34)cn2)CN(C2CCN(C(=O)c3c(F)cc(C#N)cc3F)CC2)C1` [Example 340, 4-{1-[1-[1-(4-cyano-2,6-difluorobenzoyl)piperidin-4-yl]-3-(cyanomethyl)azetidin-3-yl]-1H-pyrazol-4-yl}-1H-pyrrolo[2,3-b]pyridine-5-carbonitrile], in experiment [1], the “IC50 Ratio JAK2/JAK1” value amounted to 1.4. Besides, the IC50 was in the range of 20 to 30 nM in experiment [2] and 10 to 50 nM against Jak2 (a.a. 828-1132).
Regarding `N#CCC1(n2cc(-c3c(C#N)cnc4[nH]ccc34)cn2)CN(C2CCN(C(=O)c3cc(C(F)(F)F)ncc3Cl)CC2)C1` [Example 341, 4-{1-[1-{1-[5-chloro-2-(trifluoromethyl)isonicotinoyl]piperidin-4-yl}-3-(cyanomethyl)azetidin-3-yl]-1H-pyrazol-4-yl}-1H-pyrrolo[2,3-b]pyridine-5-carbonitrile], the “IC50 Ratio JAK2/JAK1” value in experiment [1] is given as 3.2. Besides, the IC50 in experiment [2] is 5 to 20 nM; against Jak2 (a.a. 828-1132), 50 to 100 nM.
For `N#CCC1(n2cc(-c3ncnc4[nH]ccc34)cn2)CN(C2CCN(C(=O)c3cc(C(F)(F)F)ncc3Cl)CC2)C1` [Example 342, {1-{1-[5-Chloro-2-(trifluoromethyl)isonicotinoyl]piperidin-4-yl}-3-[4-(7H-pyrrolo[2,3-d]pyrimidin-4-yl)-1H-pyrazol-1-yl]azetidin-3-yl}acetonitrile], in that order: 5.7, ≤ 5 nM and 10 to 50 nM.
For `N#CCC1(n2cc(-c3ncnc4[nH]ccc34)cn2)CN(C2CCN(C(=O)c3cc(C(F)(F)F)ncc3F)CC2)C1` [Example 343, {1-{1-[5-Fluoro-2-(trifluoromethyl)isonicotinoyl]piperidin-4-yl}-3-[4-(7H-pyrrolo[2,3-d]pyrimidin-4-yl)-1H-pyrazol-1-yl]azetidin-3-yl}acetonitrile], in that order: 5.5, 5 to 20 nM and 50 to 100 nM.
The corresponding values for `N#CCC1(n2cc(-c3ncnc4[nH]ccc34)cn2)CN(C2CCN(C(=O)c3nc(C(F)(F)F)cs3)CC2)C1` [Example 344, [3-[4-(7H-Pyrrolo[2,3-d]pyrimidin-4-yl)-1H-pyrazol-1-yl]-1-(1-{[4-(trifluoromethyl)-1,3-thiazol-2-yl]carbonyl}piperidin-4-yl)azetidin-3-yl]acetonitrile] are 18.9, ≤ 5 nM and 50 to 100 nM.
On to `N#CCC1(n2ccc(-c3ncnc4[nH]ccc34)c2)CN(C2CCN(C(=O)c3ccnc(C(F)(F)F)n3)CC2)C1` [Example 345, [3-[3-(7H-Pyrrolo[2,3-d]pyrimidin-4-yl)-1H-pyrrol-1-yl]-1-(1-{[2-(trifluoromethyl)pyrimidin-4-yl]carbonyl}piperidin-4-yl)azetidin-3-yl]acetonitrile], for which the “IC50 Ratio JAK2/JAK1” value in experiment [1] was 11.9. In addition, the IC50 was 5 to 20 nM in experiment [2] and 50 to 100 nM against Jak2 (a.a. 828-1132).
